molecular target: T1, ERα protein (HiBiT-tagged) in ESR1_HiBiT KI MCF7 cells (Homo sapiens, UniProt P03372); assay: Nano Glo HiBiT Lytic Degradation Assay; format: cell-based; settings: 6 hours with compound, 14-point dose response 1:3, bell-shape curve fit, half-maximal effect of first Hill model, read-out: MCF7 ESR1 HiBiT - (DC50)
T1 sequence (P03372 1-595): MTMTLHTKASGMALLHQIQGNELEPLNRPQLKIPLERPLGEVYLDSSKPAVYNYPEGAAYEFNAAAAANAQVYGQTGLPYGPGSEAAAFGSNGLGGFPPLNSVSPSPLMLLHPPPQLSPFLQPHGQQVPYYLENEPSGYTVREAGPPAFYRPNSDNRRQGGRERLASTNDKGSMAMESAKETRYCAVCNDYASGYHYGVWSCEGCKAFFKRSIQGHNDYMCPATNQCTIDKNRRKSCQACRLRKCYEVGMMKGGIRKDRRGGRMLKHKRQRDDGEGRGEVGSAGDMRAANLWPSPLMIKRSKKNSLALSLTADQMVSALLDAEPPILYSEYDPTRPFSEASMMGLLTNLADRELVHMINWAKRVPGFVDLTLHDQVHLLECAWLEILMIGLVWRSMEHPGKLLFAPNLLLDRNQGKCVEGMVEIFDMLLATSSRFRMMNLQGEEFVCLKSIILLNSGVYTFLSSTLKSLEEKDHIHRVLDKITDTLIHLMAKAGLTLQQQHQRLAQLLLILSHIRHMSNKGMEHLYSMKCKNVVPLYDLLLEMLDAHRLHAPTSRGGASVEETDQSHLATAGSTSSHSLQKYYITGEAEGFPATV
How it was run: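 ESR1_HiBiT knock-in MCF7 cells were seeded 24 h before treatment, then exposed to compounds for 6 h at 37° C (14-point 1:3 curves, 10 mM top stock, 0.1% DMSO final, duplicates). HiBiT-ERα was read by lytic LgBiT luminescence, background-subtracted and normalized to DMSO. DC50 was taken from the half-maximal point of the first Hill component of a bell-shaped fit.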

Row | Structure (SMILES) | DC50 [nM]
1 | O=C1CC[C@H](N2Cc3cc(N4CCN(CC5CCN(c6ccc([C@@H]7c8ccc(O)cc8C(F)(F)C[C@@H]7c7ccc(C(F)(F)F)cc7)cc6)CC5)CC4)ccc3C2=O)C(=O)N1 [Compound I-329, (S)-3-(5-(4-((1-(4-((1R,2S)-4,4-difluoro-6-hydroxy-2-(4-(trifluoromethyl)phenyl)-1,2,3,4-tetrahydronaphthalen-1-yl)phenyl)piperidin-4-yl)methyl)piperazin-1-yl)-1-oxoisoindolin-2-yl)piperidine-2,6-dione] | 0.92
2 | CC(C)C[C@@H]1CC(F)(F)c2cc(O)ccc2[C@@H]1c1ccc(N2CCC(CN3CCN(c4ccc5c(c4)CN([C@H]4CCC(=O)NC4=O)C5=O)CC3)CC2)cc1 [Compound I-220, (S)-3-(5-(4-((1-(4-((1S,2R)-4,4-difluoro-6-hydroxy-2-isobutyl-1,2,3,4-tetrahydronaphthalen-1-yl)phenyl)piperidin-4-yl)methyl)piperazin-1-yl)-1-oxoisoindolin-2-yl)piperidine-2,6-dione] | 14
3 | O=C1CC[C@H](N2Cc3cc(N4CCN(CC5CCN(c6ccc([C@H]7c8ccc(O)cc8CC[C@H]7CC7CCCC7)cc6)CC5)CC4)ccc3C2=O)C(=O)N1 [Compound I-120, (S)-3-(5-(4-((1-(4-((1S,2S)-2-(cyclopentylmethyl)-6-hydroxy-1,2,3,4-tetrahydronaphthalen-1-yl)phenyl)piperidin-4-yl)methyl)piperazin-1-yl)-1-oxoisoindolin-2-yl)piperidine-2,6-dione] | ≥ 10000
4 | Cc1ccccc1[C@H]1CC(F)(F)c2cc(O)ccc2[C@H]1c1ccc(N2CCC(CN3CCN(c4ccc5c(c4)CN([C@H]4CCC(=O)NC4=O)C5=O)CC3)CC2)cc1 [Compound I-322, (S)-3-(5-(4-((1-(4-((1R,2S)-4,4-difluoro-6-hydroxy-2-(o-tolyl)-1,2,3,4-tetrahydronaphthalen-1-yl)phenyl)piperidin-4-yl)methyl)piperazin-1-yl)-1-oxoisoindolin-2-yl)piperidine-2,6-dione] | 0.56
5 | CC(C)[C@@H]1CC(F)(F)c2cc(O)ccc2[C@@H]1c1ccc(N2CCC(CN3CCN(c4ccc5c(c4)CN([C@H]4CCC(=O)NC4=O)C5=O)CC3)CC2)cc1 [Compound I-153, (S)-3-(5-(4-((1-(4-((1S,2S)-4,4-difluoro-6-hydroxy-2-isopropyl-1,2,3,4-tetrahydronaphthalen-1-yl)phenyl)piperidin-4-yl)methyl)piperazin-1-yl)-1-oxoisoindolin-2-yl)piperidine-2,6-dione] | 13
6 | O=C1CC[C@H](N2Cc3cc(N4CCN(CC5CCN(c6ccc([C@@H]7c8ccc(O)cc8CC[C@@H]7c7ccccn7)cc6)CC5)CC4)ccc3C2=O)C(=O)N1 [Compound I-115] | 0.63
7 | CC(C1CCN(c2ccc([C@@H]3c4ccc(O)cc4CC[C@@H]3c3ccccc3)cc2)CC1)N1CCN(c2ccc3c(c2)CN([C@@H]2CCC(=O)NC2=O)C3=O)CC1 (single isomer, unassigned) [II-67] | 47
8 | Cc1cc(F)ccc1[C@H]1OCc2cc(O)ccc2[C@H]1c1ccc(N2CCC(CN3CCN(c4ccc5c(c4)CN([C@H]4CCC(=O)NC4=O)C5=O)CC3)CC2)cc1 [Compound I-371, (S)-3-(5-(4-((1-(4-((3S,4R)-3-(4-fluoro-2-methylphenyl)-7-hydroxyisochroman-4-yl)phenyl)piperidin-4-yl)methyl)piperazin-1-yl)-1-oxoisoindolin-2-yl)piperidine-2,6-dione] | 0.17
9 | C[C@H]1O[C@H](C2CCCCC2)[C@@H](c2ccc(N3CCC(CN4CCN(c5ccc6c(c5)CN([C@H]5CCC(=O)NC5=O)C6=O)CC4)CC3)cc2)c2ccc(O)cc21 (single isomer, unassigned) [Compound I-255] | 0.87
10 | O=C1CC[C@H](N2Cc3cc(N4CCN(CC5CCN(c6ccc([C@H]7c8ccc(O)cc8CC[C@@]78CCc7ccccc78)cc6)CC5)CC4)ccc3C2=O)C(=O)N1 (relative stereo) [Compound I-261, (S)-3-(5-(4-((1-(4-((1S*,1′R*)-6′-hydroxy-2,3,3′,4′-tetrahydro-1′H-spirofindene-1,2′-naphthalen]-1′-yl)phenyl)piperidin-4-yl)methyl)piperazin-1-yl)-1-oxoisoindolin-2-yl)piperidine-2,6-dione] | 19
11 | O=C1CCC(N2Cc3cc(N4CCN(CC5CCN(c6c(F)cc([C@@H]7c8ccc(O)cc8CC[C@@H]7C7CCCCC7)cc6F)CC5)CC4)ccc3C2=O)C(=O)N1 (stereo in doubt) [Compound I-159, (R)-3-(5-(4-((1-(4-((1R,2R)-2-cyclohexyl-6-hydroxy-1,2,3,4-tetrahydronaphthalen-1-yl)-2,6-difluorophenyl)piperidin-4-yl)methyl)piperazin-1-yl)-1-oxoisoindolin-2-yl)piperidine-2,6-dione] | 10
12 | CC(C)[C@H]1CCc2cc(O)ccc2[C@H]1c1ccc(N2CCC(CN3CCN(c4ccc5c(c4)CN(C4CCC(=O)NC4=O)C5=O)CC3)CC2)cc1 (stereo in doubt) [Compound I-128, (R)-3-(5-(4-((1-(4-((1R,2R)-6-hydroxy-2-isopropyl-1,2,3,4-tetrahydronaphthalen-1-yl)phenyl)piperidin-4-yl)methyl)piperazin-1-yl)-1-oxoisoindolin-2-yl)piperidine-2,6-dione] | 0.1
13 | Cn1nc(N2CCC(=O)NC2=O)c2ccc(N3CCN(CC4CCN(c5ccc([C@@H]6c7ccc(O)cc7CO[C@@H]6c6ccccc6)cc5)CC4)CC3)cc21 [Compound I-396, 1-(6-(4-((1-(4-((3S,4R)-7-hydroxy-3-phenylisochroman-4-yl)phenyl)piperidin-4-yl)methyl)piperazin-1-yl)-1-methyl-1H-indazol-3-yl)dihydropyrimidine-2,4 (1H,3H)-dione] | 0.99
14 | O=C1CCC(c2ccc(N3CC[C@H]4[C@@H]3CCN4CC3CCN(c4ccc([C@@H]5c6ccc(O)cc6CC[C@@H]5c5ccccc5)cc4)CC3)cc2)C(=O)N1 (stereo partly drawn) [Compound I-177, 3-(4-((3aS,6aS)-4-((1-(4-((1R,2S)-6-hydroxy-2-phenyl-1,2,3,4-tetrahydronaphthalen-1-yl)phenyl)piperidin-4-yl)methyl)hexahydropyrrolo[3,2-b]pyrrol-1 (2H)-yl)phenyl)piperidine-2,6-dione] | ≥ 10000

Next, values leading:

Row | DC50 [nM] | Structure (SMILES)
15 | 12.1 | Cn1c(=O)n([C@@H]2CCC(=O)NC2=O)c2ccc(N3CCN(CC4CCN(c5ccc([C@@H]6c7ccc(O)cc7C(F)(F)C[C@@H]6c6ccccc6)cc5)CC4)CC3)cc21 (single isomer, unassigned) [Compound I-278]
16 | 18 | C[C@@]1(C2CCCCC2)OCc2cc(O)ccc2[C@@H]1c1ccc(N2CCC(CN3CCN(c4ccc5c(c4)CN([C@H]4CCC(=O)NC4=O)C5=O)CC3)CC2)cc1 (single isomer, unassigned) [Compound I-256]
17 | ≥ 10000 | O=C1CC[C@H](N2Cc3cc(N4CCN(C[C@H]5CCCN(c6ccc([C@H]7c8ccc(O)cc8CC[C@H]7c7ccccc7)cc6)C5)CC4)ccc3C2=O)C(=O)N1 (single isomer, unassigned) [II-23]
18 | 173 | O=C1CC[C@H](N2Cc3cc(N4CCN(CC5CCN(c6ccc([C@H]7c8ccc(O)cc8CC[C@H]7C7CCOCC7)cc6)CC5)CC4)ccc3C2=O)C(=O)N1 [Compound I-33, (3S)-3-[5-[4-[[1-[4-[(1S,2S)-6-hydroxy-2-tetrahydropyran-4-yl-tetralin-1-yl]phenyl]-4-piperidyl]methyl]piperazin-1-yl]-1-oxo-isoindolin-2-yl]piperidine-2,6-dione]
19 | ≥ 10000 | O=C1CC[C@H](N2Cc3cc(N4CCN(CC5CCN(c6ccc([C@H]7c8ccc(O)cc8CC[C@H]7c7ccccc7)cn6)CC5)CC4)ccc3C2=O)C(=O)N1 [II-79]
20 | 2 | O=C1CC[C@H](N2Cc3cc(N4CCN(CC5CCN(c6ccc([C@@H]7c8ccc(O)cc8CC[C@]78CCc7ccccc78)cc6)CC5)CC4)ccc3C2=O)C(=O)N1 [Compound I-262, (S)-3-(5-(4-((1-(4-((1R,1′S)-6′-hydroxy-2,3,3′,4′-tetrahydro-1′H-spiro[indene-1,2′-naphthalen]-1′-yl)phenyl)piperidin-4-yl)methyl)piperazin-1-yl)-1-oxoisoindolin-2-yl)piperidine-2,6-dione]
21 | ≥ 10000 | O=C1CCN(c2ccc(N3CC[C@]4(CCN(CC5CCN(c6ccc([C@@H]7c8ccc(O)cc8CC[C@@H]7c7ccccc7)cc6)CC5)C4)C3)cc2)C(=O)N1 (single isomer, unassigned) [Compound I-287]
22 | 0.25 | Cn1c(=O)n([C@H]2CCC(=O)NC2=O)c2ccc(N3CCN(CC4CCN(c5ccc([C@@H]6c7ccc(O)cc7CC[C@@H]6c6ccccc6)cc5)CC4)CC3)cc21 (single isomer, unassigned) [Compound I-275]
23 | ≥ 10000 | O=C1CC[C@H](N2Cc3cc(N4CCC5(CCN(CC6CCN(c7ccc([C@H]8c9ccc(O)cc9CC[C@H]8c8ccccc8)cc7)CC6)CC5)CC4)ccc3C2=O)C(=O)N1 (single isomer, unassigned) [II-18]
24 | 4 | C[C@@H](C1CC1)[C@H]1CC(F)(F)c2cc(O)ccc2[C@H]1c1ccc(N2CCC(CN3CCN(c4ccc5c(c4)CN([C@H]4CCC(=O)NC4=O)C5=O)CC3)CC2)cc1 (single isomer, unassigned) [Compound I-227]
